According to ChEMBL document CHEMBL3286257, “Development of second generation EP2 antagonists with high selectivity” (Eur J Med Chem, 2014):
Values after ≈ are worked out from the molar mass of the structure shown.

How the values were obtained:
[1] = Aqueous solubility of the compound by nephelometry method; type: physicochemical; settings: buffer
[2] = species on record: Homo sapiens; test: Selectivity index, ratio of KB for IP receptor (unknown origin) to KB for EP2 receptor (unknown origin)
[3] = species on record: Homo sapiens; test: Selectivity index, ratio of KB for EP4 receptor (unknown origin) to KB for EP2 receptor (unknown origin)
[4] = system: C6; test: (§1) Cytotoxicity against rat C6 cells; type: cell-based; settings: c6
[5] = biological target: Prostaglandin E2 receptor EP4 subtype (Homo sapiens) (UniProt P35408); test: Antagonist activity at EP4 receptor (unknown origin) expressed in rat C6 cells assessed as inhibition of PGE2-induced response; type: cell-based
[6] = species on record: Homo sapiens; test: Selectivity index, ratio of KB for DP1 receptor (unknown origin) to KB for EP2 receptor (unknown origin)
[7] = Metabolic stability of the compound in mouse liver microsomes assessed as compound remaining at 10 uM after 60 mins; type: ADME; settings: read-out: Stability
[8] = Metabolic stability of the compound in human liver microsomes assessed as compound remaining at 10 uM after 30 mins; type: ADME; settings: read-out: Stability
[9] = biological target: Prostaglandin E2 receptor EP2 subtype (Homo sapiens) (UniProt P43116); test: Antagonist activity at EP2 receptor (unknown origin) expressed in rat C6 cells assessed as inhibition of PGE2-induced response; type: cell-based
[10] = Metabolic stability of the compound in human liver microsomes assessed as compound remaining at 10 uM after 60 mins; type: ADME; settings: read-out: Stability
[11] = Metabolic stability of the compound in human liver microsomes assessed as compound remaining at 10 uM after 15 mins; type: ADME; settings: read-out: Stability
[12] = system: EP2 receptor; test: Therapeutic index, ratio of CC50 for rat C6 cells to KB for EP2 receptor (unknown origin); type: cell-based; settings: read-out: TI
[13] = Metabolic stability of the compound in mouse liver microsomes assessed as compound remaining at 10 uM after 30 mins; type: ADME; settings: read-out: Stability
[14] = biological target: Prostacyclin receptor (Homo sapiens) (UniProt P43119); test: Antagonist activity at IP receptor (unknown origin) expressed in rat C6 cells by TR-FRET assay; type: cell-based
[15] = Metabolic stability of the compound in mouse liver microsomes assessed as compound remaining at 10 uM after 15 mins; type: ADME; settings: read-out: Stability
[16] = biological target: T1, Prostaglandin D2 receptor (Homo sapiens) (UniProt Q13258); test: Antagonist activity at DP1 receptor (unknown origin) expressed in rat C6 cells by TR-FRET assay; type: cell-based
T1 sequence (whole entry): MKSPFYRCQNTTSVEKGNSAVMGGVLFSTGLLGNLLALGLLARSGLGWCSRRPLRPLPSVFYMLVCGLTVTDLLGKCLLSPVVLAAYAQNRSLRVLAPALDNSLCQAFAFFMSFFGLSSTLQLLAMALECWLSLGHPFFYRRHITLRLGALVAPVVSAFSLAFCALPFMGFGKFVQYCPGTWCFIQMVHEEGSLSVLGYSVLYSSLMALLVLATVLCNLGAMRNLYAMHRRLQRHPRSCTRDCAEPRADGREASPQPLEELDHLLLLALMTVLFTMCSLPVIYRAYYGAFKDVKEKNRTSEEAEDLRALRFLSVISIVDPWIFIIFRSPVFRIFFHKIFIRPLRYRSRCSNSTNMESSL

[17] = AUC (infinity) in C57Bl/6 mouse at 5 mg/kg, ip; type: ADME, organism-based; set-up: time infinity, dose 5 mg/kg, route intraperitoneal; settings: plasma
[18] = Cmax in C57Bl/6 mouse at 10 mg/kg, po; type: ADME, organism-based; set-up: dose 10 mg/kg, route oral; settings: in vivo
[19] = as §1; type: cell-based; settings: C6 cells
[20] = AUClast in C57Bl/6 mouse at 5 mg/kg, ip; type: ADME, organism-based; set-up: time 0 - last, dose 5 mg/kg, route intraperitoneal; settings: plasma
[21] = Terminal half life in C57Bl/6 mouse at 5 mg/kg, ip; type: ADME, organism-based; set-up: dose 5 mg/kg, route intraperitoneal; settings: in vivo, read-out: beta t1/2 (converted)
[22] = biological target: Prostaglandin E2 receptor EP2 subtype (Homo sapiens) (UniProt P43116); test: Competitive antagonist activity at human EP2 receptor assessed as inhibition of PGE2-induced response
[23] = Cmax in C57Bl/6 mouse at 5 mg/kg, ip; type: ADME, organism-based; set-up: dose 5 mg/kg, route intraperitoneal; settings: in vivo

Sequence of Prostaglandin E2 receptor EP4 subtype (Homo sapiens) (P35408 whole entry): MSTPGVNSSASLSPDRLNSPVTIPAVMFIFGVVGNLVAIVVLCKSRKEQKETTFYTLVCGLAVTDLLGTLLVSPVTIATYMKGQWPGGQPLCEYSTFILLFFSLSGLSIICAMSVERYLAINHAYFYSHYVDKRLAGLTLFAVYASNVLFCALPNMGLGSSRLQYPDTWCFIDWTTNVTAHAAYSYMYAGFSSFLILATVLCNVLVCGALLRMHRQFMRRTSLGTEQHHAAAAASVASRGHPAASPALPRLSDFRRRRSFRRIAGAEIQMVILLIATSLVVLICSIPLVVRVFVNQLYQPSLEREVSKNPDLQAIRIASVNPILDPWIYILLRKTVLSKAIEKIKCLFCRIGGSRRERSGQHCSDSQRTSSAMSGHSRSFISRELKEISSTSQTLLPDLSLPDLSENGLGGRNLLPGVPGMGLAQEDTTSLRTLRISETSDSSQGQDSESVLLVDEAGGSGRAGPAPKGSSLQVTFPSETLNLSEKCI
Sequence of Prostacyclin receptor (Homo sapiens) (P43119 whole entry): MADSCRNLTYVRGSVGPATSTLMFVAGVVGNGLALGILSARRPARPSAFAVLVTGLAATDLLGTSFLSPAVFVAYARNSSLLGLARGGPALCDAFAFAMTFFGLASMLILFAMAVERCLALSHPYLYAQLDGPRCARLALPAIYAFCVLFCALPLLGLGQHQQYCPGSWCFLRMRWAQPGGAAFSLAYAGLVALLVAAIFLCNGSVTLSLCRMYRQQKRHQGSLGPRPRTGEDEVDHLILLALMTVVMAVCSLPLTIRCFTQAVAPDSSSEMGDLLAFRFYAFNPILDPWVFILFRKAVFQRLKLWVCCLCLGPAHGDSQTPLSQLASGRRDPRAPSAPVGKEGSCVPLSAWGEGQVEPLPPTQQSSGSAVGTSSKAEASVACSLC
Sequence of Prostaglandin E2 receptor EP2 subtype (Homo sapiens) (P43116 whole entry): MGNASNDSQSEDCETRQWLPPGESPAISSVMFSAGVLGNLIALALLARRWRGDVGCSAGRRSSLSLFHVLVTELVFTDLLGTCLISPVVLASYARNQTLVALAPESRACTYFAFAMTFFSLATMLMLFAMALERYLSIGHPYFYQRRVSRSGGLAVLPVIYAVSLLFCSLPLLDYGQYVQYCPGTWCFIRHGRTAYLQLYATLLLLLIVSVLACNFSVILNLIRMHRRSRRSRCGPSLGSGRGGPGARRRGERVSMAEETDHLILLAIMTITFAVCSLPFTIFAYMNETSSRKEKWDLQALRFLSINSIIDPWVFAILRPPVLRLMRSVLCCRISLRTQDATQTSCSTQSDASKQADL

solubility kinetic [1] [µM] | Ratio [2] | Ratio [3] | Kb [5] [µM] | Ratio [6] | remaining at 1 h, 10 µM [7] [%] | remaining at 0.5 h, 10 µM [8] [%] | Kb [9] [µM] | remaining at 1 h, 10 µM [10] [%] | remaining at […], 10 µM [11] [%] | remaining at 0.5 h, 10 µM [13] [%] | Kb [14] [µM] | remaining at […], 10 µM [15] [%] | Kb [16] [µM] | Kb [22] [µM] | Structure (SMILES) | CC50 [4] [µM] | selectivity ratio [12] | other results
160 (≈ 60.4 µg/mL) | 675 | 2620 | 70.3 | 172 | 2 | 49 | 0.0268 | 31 | 66 | 12 | 18.1 | 35 | 4.62 |  | Cc1cc2ccccc2n1CCNC(=O)c1ccc(N2CCC(O)CC2)cc1 | 163 | 6080 | 
< 25 | 375 | 1040 | 23.6 | 342 | 12 | 64 | 0.0226 | 28 | 66 | 37 | 8.5 | 49 | 7.72 |  | Cc1cc2ccccc2n1CCNC(=O)c1ccc(N2CCCCCC2)cc1 | 327 | 14500 | 
< 25 | 570 | 1160 | 28.7 | > 516 | 18 | 12 | 0.0247 | 1.4 | 22 | 32 | 14.2 | 52 | > 10 |  | Cc1cc2ccccc2n1CCNC(=O)c1ccc(N2CCCC2)cc1 | 337 | 16100 | 
257 (≈ 89 µg/mL) |  |  |  |  | 57 | 87 |  | 73 | 96 | 75 |  | 85 | 0.66 | 0.0164 | Cc1cc2ccccc2n1CCNC(=O)c1ccc(-c2nnn[nH]2)cc1 |  |  | AUC(0-inf) [17]: 1600 ng·h/mL; Cmax [18]: 134 nM; CC50 [19]: > 300 µM; AUC(0-t) [20]: 1580 ng·h/mL; half-life [21]: 18 min; Cmax [23]: 2040 ng/mL
< 25 | 95 | 1320 | 15.5 | 298 | 6 | 20 | 0.0119 | 5 | 40 | 26 | 1.12 | 30 | 3.55 |  | CCCN(CCC)c1ccc(C(=O)NCCn2c(C)cc3ccccc32)cc1 | 332 | 28100 | 
67 (≈ 24.4 µg/mL) | 206 | 2190 | 21 | 533 | 0 | 38 | 0.0096 | 22 | 58 | 5 | 1.98 | 8 | 5.21 | 0.0161 | Cc1cc2ccccc2n1CCNC(=O)c1ccc(N2CCOCC2)cc1 | 289 | 30100 | 
 | 217 | 565 | 14.5 | 85 |  |  | 0.0257 |  |  |  | 5.6 |  | 2.2 |  | Cc1cc2ccccc2n1CCNC(=O)c1ccc(N2CCOCC2)c(F)c1 |  | > 19400 | CC50 [19]: > 500 µM
> 750 |  |  |  |  | 86 | 97 | 0.0897 | 95 | 97 | 92 |  | 97 |  | 0.097 | Cc1cc2ccccc2n1CCNC(=O)c1ccc(N2CCC(C(=O)O)CC2)cc1 |  |  | 
< 25 | 360 | 3210 | 30.2 | 273 | 7 | 42 | 0.0094 | 21 | 67 | 18 | 3.4 | 24 | 2.57 |  | Cc1cc2ccccc2n1CCNC(=O)c1ccc(N2CCCCC2)cc1 | 315 | 33500 | 
< 25 | 2960 | 11600 | 31.3 | 1220 | 3 | 9 | 0.0027 | 4 | 19 | 9 | 8 | < 14 | 3.19 | 0.0175 | CCN(CC)c1ccc(C(=O)NCCn2c(C)cc3ccccc32)cc1 | 320 | 119000 | 
< 25 |  | 6940 | 48 | 1370 | 5 | 20 | 0.0069 | 5 | 40 | 19 |  | 34 | 9.48 | 0.0163 | CCN(CC)c1ccc(C(=O)NCCc2c(C)[nH]c3ccccc23)cc1 |  | > 72500 | CC50 [19]: > 500 µM
